Test [1] can be described thus: inhibitors of intracellular T. cruzi replication, confirmation, NIH3T3 host cells, beta-gal luminescence (AID 2044).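 Also: intracellular parasites grown in NIH/3T3 mouse fibroblasts as host cells; luminescent beta-galactosidase reporter signal from transgenic T. cruzi replicating inside host cells; inhibitors lower the luminescence signal.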 Format: functional, cell-based.
Test [2] in a line: cytotoxicity toward NIH3T3 fibroblasts, dose response, counter-screen, cell-based, ATP luminescence, mouse fibroblasts (AID 2010).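 Also: cells exposed to compound for about 90 hours before reading.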 Format: functional. For orientation: Counterscreens check selectivity or assay interference.
Test [3] has as its target Glucose-6-phosphate 1-dehydrogenase (Homo sapiens, UniProt P11413). The test is described as follows: human G6PD enzyme inhibitors, dose response, selectivity assay for P. falciparum G6PD inhibitor project, biochemical, fluorescence (AID 504792). Format: functional.
Test [4] deals with Vero. The test is described as follows: Vero cell cytotoxicity, cytotoxicity control for flavivirus capping enzyme inhibitors (AID 588742). Particulars: Chlorocebus sabaeus. Format: functional.
Test [5] addresses Genome polyprotein (dengue virus type 2, UniProt P29990). The test is described as follows: Dengue-2 NS5 methyltransferase inhibitors, primary screen, biochemical, confirmation dose response (AID 588689). Format: functional.
Test [6] addresses Dual specificity tyrosine-phosphorylation-regulated kinase 1A (Rattus norvegicus, UniProt Q63470). Format: biochemical, Homo sapiens.
The target of test [7] is T1, Polyadenylate-binding protein 1 (Homo sapiens, UniProt P11940). Description: PABP1 MLLE–PAM2 interaction inhibitors, dose response, miRNA deadenylation inhibitor project, biochemical, fluorescence polarization, Cy5-PAM2 peptide, secondary (AID 602260). Format: functional. To be noted: read-out: IC50_Mean. For orientation: In fluorescence polarisation assays a small probe gives low polarisation when free and higher when bound to something large.
T1 sequence (P11940 whole entry): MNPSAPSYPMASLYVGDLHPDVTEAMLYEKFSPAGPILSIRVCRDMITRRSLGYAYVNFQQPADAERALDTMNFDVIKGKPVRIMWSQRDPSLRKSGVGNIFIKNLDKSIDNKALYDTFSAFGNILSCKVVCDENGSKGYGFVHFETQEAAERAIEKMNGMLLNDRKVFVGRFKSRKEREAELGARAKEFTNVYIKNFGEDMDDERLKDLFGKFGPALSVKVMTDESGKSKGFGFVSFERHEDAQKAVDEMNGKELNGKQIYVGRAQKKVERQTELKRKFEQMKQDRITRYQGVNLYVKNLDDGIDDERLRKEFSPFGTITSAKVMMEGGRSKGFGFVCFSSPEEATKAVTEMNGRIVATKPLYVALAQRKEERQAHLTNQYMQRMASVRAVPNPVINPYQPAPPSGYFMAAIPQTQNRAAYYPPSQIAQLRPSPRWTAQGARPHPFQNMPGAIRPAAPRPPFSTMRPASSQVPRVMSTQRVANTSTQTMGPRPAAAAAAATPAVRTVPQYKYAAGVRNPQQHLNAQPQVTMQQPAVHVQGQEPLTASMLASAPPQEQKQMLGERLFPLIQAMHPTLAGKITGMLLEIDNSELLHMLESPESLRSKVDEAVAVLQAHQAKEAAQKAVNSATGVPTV

The target in test [8] is T1, Polyadenylate-binding protein 1. Description: PABP1 MLLE–PAM2 binding inhibitor potency, dose response, biochemical, fluorescence polarization, FITC-PAM2 peptide (AID 602259). Format: functional. To be noted: read-out: IC50_Mean.
Test [9] has as its target T2, RNA-binding protein pos-1 (Caenorhabditis elegans, UniProt G5EF15).
T2 sequence (G5EF15 whole entry): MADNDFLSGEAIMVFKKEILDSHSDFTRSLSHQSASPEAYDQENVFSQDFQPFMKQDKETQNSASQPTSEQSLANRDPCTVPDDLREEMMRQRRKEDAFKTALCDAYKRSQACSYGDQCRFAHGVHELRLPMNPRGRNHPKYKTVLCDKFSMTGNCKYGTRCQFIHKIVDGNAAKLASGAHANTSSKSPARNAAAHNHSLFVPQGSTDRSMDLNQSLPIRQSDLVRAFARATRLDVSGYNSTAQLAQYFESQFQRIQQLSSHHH
The test is described as follows: inhibitors of POS-1/mex-3 RNA binding, dose response, biochemical, fluorescence polarization (AID 1964).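 Also: purified POS-1 fused to maltose binding protein made in E. coli; potency of compounds blocking POS-1 binding to fluorescent RNA.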

The target of test [10] is T3, Zinc finger protein mex-5 (Caenorhabditis elegans, UniProt Q9XUB2).
T3 sequence (Q9XUB2 whole entry): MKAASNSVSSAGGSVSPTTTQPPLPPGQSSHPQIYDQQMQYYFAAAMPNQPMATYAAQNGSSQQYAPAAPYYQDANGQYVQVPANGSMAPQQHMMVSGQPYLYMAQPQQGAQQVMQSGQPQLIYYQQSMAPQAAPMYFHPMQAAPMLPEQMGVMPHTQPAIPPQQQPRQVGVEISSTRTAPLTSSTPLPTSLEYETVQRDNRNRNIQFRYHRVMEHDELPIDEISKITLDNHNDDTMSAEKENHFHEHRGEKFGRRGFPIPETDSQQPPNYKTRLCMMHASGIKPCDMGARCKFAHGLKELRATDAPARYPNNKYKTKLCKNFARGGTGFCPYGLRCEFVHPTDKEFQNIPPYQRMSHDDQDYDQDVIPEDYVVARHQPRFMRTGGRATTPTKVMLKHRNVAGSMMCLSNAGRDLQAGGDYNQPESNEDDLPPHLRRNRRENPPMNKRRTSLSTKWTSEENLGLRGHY
The test is described as follows: MEX-5/TCR-2 RNA interaction inhibitors, dose response, biochemical, C. elegans, fluorescence polarization (AID 1960).

Test [11] has as its target Beta-galactosidase (Escherichia coli, UniProt Q8VNN2). The test is described as follows: PubChem AID 485352. Format: functional.
For test [12], the target named is T4, Type-1 angiotensin II receptor (Homo sapiens, UniProt P30556).
T4 sequence (P30556 whole entry): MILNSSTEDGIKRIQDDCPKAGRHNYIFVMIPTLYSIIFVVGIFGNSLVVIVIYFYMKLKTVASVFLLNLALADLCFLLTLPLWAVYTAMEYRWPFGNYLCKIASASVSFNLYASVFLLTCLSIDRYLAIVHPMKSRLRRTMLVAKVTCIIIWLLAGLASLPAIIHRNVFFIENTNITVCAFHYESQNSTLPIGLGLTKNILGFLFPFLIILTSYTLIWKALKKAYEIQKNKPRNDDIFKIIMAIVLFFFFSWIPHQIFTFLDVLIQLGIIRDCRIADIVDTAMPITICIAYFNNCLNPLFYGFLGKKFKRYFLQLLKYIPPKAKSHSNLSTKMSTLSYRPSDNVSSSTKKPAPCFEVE
Description: AT1 receptor antagonists, dose response, selectivity assay for APJ receptor antagonist project, cell-based, uHTS hits (AID 463214).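 Also: antagonist potency against angiotensin II stimulated AT1 response.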 Format: functional.

For test [13], the target named is T5, High affinity choline transporter 1 (Homo sapiens, UniProt Q9GZV3).
T5 sequence (Q9GZV3 whole entry): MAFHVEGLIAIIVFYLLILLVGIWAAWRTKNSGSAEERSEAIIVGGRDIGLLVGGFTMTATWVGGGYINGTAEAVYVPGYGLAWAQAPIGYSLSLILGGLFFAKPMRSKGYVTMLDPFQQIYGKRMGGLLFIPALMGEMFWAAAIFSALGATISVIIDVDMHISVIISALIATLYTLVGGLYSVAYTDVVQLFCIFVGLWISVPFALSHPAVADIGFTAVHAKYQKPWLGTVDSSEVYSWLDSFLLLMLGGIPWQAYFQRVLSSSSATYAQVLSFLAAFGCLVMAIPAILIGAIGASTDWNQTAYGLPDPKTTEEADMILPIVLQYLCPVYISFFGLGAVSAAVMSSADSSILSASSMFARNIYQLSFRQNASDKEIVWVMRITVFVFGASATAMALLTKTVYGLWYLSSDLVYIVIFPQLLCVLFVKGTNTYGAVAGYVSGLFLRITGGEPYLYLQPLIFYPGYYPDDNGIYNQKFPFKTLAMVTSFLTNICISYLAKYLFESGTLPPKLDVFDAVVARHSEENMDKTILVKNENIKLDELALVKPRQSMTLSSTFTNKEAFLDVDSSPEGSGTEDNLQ
The test is described as follows: CHT inhibitors, dose response, cell-based, 5-point CRC, membrane potential dye (AID 504840). Format: functional.

For test [14], the target named is Peroxisome proliferator-activated receptor gamma/Nuclear receptor coactivator 1 (Homo sapiens, UniProt P37231). Description: TR-FRET dose response biochemical High Throughput Screening assay for agonists of the steroid receptor coactivator 1 (SRC-1) recruitment by the peroxisome proliferator-activated receptor gamma (PPAR gamma): non-selective agonists. [Related pubchem assays (depositor defined):AID1300, AID1808, AID504735, AID631]. Format: protein assay. Background: In TR-FRET formats the signal depends on donor and acceptor labels being close together.
Sequence of Peroxisome proliferator-activated receptor gamma/Nuclear receptor coactivator 1 (P37231 whole entry): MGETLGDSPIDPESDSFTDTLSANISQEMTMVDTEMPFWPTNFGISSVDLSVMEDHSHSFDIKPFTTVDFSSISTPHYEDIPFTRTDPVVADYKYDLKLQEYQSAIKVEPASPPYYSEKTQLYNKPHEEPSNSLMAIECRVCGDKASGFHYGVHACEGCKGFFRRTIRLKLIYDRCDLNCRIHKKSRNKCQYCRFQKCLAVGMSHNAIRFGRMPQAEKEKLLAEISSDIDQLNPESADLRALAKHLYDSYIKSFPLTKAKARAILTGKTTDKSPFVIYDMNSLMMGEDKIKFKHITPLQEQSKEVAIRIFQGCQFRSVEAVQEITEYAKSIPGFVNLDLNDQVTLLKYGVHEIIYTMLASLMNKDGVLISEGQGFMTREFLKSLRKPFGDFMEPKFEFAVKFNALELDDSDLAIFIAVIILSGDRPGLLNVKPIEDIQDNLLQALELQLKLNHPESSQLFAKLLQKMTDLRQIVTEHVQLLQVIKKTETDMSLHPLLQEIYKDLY
Sequence of Peroxisome proliferator-activated receptor gamma/Nuclear receptor coactivator 1 (Q15788 whole entry, further chain): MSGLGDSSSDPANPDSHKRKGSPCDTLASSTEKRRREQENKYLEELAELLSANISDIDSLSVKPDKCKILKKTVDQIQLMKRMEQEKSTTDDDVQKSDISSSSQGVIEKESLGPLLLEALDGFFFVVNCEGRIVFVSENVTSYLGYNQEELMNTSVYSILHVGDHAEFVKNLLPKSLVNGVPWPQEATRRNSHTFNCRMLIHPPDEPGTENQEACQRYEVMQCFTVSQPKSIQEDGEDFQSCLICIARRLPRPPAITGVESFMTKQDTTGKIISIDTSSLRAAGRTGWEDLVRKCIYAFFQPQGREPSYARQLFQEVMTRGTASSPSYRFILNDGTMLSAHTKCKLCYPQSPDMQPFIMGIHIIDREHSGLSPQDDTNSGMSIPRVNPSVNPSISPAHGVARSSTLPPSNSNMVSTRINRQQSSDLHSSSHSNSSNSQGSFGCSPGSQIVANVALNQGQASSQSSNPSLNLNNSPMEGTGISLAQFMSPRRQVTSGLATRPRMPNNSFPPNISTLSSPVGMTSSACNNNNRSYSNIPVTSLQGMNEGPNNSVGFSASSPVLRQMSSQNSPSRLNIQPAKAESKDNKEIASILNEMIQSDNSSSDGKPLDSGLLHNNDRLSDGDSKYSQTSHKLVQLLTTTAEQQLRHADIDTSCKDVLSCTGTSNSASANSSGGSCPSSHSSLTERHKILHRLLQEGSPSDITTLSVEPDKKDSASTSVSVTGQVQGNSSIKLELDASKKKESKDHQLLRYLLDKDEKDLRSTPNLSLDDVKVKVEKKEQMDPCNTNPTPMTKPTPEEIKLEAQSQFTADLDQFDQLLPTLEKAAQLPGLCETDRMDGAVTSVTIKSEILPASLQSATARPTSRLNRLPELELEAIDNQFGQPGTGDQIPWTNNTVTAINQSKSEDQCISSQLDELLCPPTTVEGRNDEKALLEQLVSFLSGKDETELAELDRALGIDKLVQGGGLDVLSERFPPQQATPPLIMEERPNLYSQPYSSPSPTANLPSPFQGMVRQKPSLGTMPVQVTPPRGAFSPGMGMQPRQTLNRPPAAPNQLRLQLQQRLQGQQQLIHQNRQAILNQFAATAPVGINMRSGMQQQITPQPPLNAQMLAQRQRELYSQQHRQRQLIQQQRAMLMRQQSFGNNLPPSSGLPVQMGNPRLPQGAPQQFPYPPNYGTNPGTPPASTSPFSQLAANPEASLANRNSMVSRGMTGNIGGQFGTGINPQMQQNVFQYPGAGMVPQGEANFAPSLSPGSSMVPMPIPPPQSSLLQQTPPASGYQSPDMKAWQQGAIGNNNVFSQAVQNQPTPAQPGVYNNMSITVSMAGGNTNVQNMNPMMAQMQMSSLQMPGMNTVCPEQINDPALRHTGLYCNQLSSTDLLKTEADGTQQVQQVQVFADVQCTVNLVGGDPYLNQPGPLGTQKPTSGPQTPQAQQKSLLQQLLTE

Test [15] concerns the target Peroxisome proliferator-activated receptor gamma/Nuclear receptor coactivator 3 (Homo sapiens, UniProt P37231). The test is described as follows: TR-FRET dose response biochemical High Throughput Screening assay for agonists of the steroid receptor coactivator 3 (SRC-3) recruitment by the peroxisome proliferator-activated receptor gamma (PPAR gamma): non-selective agonists. [Related pubchem assays: 1301 (Confirmation screen.), 1048 (Primary screen.)]. Format: functional.

Test [16] addresses Peroxisome proliferator-activated receptor gamma/Nuclear receptor coactivator 2 (Homo sapiens, UniProt P37231). Description: TR-FRET dose response biochemical High Throughput Screening assay for agonists of the steroid receptor coactivator 2 (SRC-2) recruitment by the peroxisome proliferator-activated receptor gamma (PPAR gamma): non-selective agonists. [Related pubchem assays: 1297, 1032 ]. Format: functional.

Calls of active or inactive are those of the source.

The source of these data is ChEMBL document CHEMBL1201862, “PubChem BioAssay data set” (2004).

As a reminder, the EC50 is the concentration at which the effect is half-maximal. As a reminder, the CC50 is the concentration giving 50% cytotoxicity. By AC50 is commonly meant the midpoint of the concentration-response curve, whichever way the signal moves.

Sequence of Beta-galactosidase (Q8VNN2 whole entry): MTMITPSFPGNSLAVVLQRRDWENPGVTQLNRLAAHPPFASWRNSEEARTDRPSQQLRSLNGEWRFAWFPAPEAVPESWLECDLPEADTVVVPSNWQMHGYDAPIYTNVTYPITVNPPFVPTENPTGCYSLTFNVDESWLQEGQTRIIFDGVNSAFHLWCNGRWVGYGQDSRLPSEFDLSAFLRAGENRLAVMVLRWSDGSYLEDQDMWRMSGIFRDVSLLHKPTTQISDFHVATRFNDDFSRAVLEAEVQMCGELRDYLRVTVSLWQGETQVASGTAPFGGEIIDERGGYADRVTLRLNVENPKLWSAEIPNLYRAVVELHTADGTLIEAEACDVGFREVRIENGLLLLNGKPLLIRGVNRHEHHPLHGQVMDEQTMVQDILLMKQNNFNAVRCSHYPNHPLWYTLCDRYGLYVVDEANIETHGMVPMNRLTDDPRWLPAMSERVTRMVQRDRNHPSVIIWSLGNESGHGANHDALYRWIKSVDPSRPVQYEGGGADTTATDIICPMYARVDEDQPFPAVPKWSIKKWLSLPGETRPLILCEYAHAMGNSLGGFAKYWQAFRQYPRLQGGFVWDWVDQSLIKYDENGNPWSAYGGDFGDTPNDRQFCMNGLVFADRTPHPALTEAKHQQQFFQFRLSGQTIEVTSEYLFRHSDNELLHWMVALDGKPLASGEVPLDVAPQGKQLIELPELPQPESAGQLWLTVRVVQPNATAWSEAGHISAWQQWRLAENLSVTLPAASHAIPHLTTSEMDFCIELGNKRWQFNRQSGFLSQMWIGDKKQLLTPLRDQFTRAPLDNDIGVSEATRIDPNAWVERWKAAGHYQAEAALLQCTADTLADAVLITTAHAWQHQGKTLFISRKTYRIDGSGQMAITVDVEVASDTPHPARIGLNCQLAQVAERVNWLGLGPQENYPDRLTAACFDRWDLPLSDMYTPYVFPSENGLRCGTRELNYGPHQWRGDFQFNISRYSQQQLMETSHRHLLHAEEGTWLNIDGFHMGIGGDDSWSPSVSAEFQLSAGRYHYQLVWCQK
Sequence of Genome polyprotein (P29990 2492-3391 limits assumed): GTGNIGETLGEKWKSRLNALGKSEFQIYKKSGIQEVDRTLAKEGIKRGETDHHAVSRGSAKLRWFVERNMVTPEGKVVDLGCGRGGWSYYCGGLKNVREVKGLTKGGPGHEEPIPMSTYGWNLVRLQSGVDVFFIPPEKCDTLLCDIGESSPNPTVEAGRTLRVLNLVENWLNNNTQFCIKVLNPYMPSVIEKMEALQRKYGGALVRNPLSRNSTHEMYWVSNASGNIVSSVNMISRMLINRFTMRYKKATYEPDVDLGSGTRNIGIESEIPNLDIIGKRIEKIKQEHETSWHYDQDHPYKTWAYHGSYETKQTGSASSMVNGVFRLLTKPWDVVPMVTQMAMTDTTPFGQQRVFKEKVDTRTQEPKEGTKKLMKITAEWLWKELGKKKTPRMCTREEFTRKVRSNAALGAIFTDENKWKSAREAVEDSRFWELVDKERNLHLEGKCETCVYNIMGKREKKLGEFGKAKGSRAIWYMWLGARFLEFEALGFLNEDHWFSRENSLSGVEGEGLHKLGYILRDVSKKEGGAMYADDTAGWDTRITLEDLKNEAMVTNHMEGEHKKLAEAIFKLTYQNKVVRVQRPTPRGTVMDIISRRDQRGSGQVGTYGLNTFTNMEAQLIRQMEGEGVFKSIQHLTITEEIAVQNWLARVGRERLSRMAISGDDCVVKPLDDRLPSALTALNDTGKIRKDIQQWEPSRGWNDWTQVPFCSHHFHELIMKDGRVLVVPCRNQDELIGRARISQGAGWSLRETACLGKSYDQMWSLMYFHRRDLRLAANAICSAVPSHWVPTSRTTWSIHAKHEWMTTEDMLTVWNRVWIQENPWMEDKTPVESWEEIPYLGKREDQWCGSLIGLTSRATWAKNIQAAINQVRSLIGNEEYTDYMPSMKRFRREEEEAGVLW
Sequence of Glucose-6-phosphate 1-dehydrogenase (P11413 whole entry): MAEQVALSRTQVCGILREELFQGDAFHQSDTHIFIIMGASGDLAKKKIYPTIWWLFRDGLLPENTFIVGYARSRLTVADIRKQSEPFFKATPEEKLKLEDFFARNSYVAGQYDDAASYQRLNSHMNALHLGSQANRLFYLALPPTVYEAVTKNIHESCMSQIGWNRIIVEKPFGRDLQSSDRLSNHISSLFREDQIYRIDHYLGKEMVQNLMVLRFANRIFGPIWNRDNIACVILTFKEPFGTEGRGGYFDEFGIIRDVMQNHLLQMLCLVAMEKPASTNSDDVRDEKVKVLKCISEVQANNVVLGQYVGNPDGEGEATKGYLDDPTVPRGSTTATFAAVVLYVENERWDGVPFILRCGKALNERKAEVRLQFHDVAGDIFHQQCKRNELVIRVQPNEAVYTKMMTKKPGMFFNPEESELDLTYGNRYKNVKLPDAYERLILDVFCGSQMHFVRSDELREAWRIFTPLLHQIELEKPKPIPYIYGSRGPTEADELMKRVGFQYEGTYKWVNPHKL

Consider `CC1=C(n2nnc([N+](=O)[O-])n2)C(c2cccnc2)C(C#N)=C(N)O1` (stereo unspecified), for which the EC50 in test [1] was 0.209 µM (active); in [2], > 60 µM (inconclusive). The IC50 in [3] was 65 µM (inactive).

As for `O=c1cc(-c2ccccc2)oc2cc(O)c(O)c(O)c12` [BAICALEIN], in [4], the CC50 was > 40 µM (active). In addition, the IC50 in [5] was 35.1 µM (active). In addition, the AC50 in [6] is 14.5 µM (active).

For `NC(=S)c1ccc(C(N)=S)o1`, the half-maximal activity concentration (AC50) in test [6] was 14.3 µM (active). Besides, the IC50 in test [7] and in test [8] was > 66 µM (inactive) each time.

As to `CC(NC(=O)COc1ccccc1)C(=O)OCC(=O)c1cc2ccccc2o1` (stereo unspecified), the EC50 is > 300 µM (not active) in [9], > 300 µM (not active) in test [10] and > 40 µM (inactive) in test [11]. For the same molecule, the IC50 in test [12] is 13.8 µM (active).

As to `C[C@H](NC(=O)OC(C)(C)C)c1nnc(SCC(=O)c2ccc(Cl)cc2)o1`, in [13], the IC50 was 1.91 µM (active).

With `COc1ccc(-n2c(=S)[nH]c3cc(C(=O)NCCCN4CCOCC4)ccc3c2=O)cc1`, the IC50 in test [13] was 10.3 µM (active).

As for `O=C(C[n+]1ccc(-c2cc(C(=O)Nc3cccc(C(F)(F)F)c3)c3ccccc3n2)cc1)c1cccc([N+](=O)[O-])c1`, the EC50 in test [11] was > 40 µM (inactive). Also, the IC50 in test [12] was 26 µM (not active).

Regarding `N#CCCN1CCN(C(=S)c2ccc(-c3ccc(Cl)cc3)o2)CC1`, the EC50 in [14] is > 79.4 µM (inactive); in test [15] it was > 79.4 µM (not active); in test [16] it was > 79.4 µM (not active).

For the molecule `CC(=O)Nc1ccc(/C=C/c2nc3ccccc3o2)cc1`, the AC50 in test [6] is 1.2 µM (active).
